Results reported in BindingDB's records for patent US11884682 (Nanjing Immunophage Biotech Co., 2024).

Target: T1, Macrophage migration inhibitory factor (Homo sapiens, UniProt P14174)
T1 sequence (P14174 whole entry): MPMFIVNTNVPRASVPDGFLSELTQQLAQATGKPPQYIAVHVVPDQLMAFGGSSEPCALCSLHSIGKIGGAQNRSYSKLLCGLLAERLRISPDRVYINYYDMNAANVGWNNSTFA
Experiment: MIF Enzymatic Assay
Description: Assays were performed in small-volume clear-bottom black 96 or 384-well polystyrene plates (Greiner Bio-One). First, 2 μL of the enzyme solution containing 6 nM of MIF in DPBS, 0.025% w/v BSA, and 300 μM CHAPS was dispensed onto sample and negative control wells using Multidrop Combi with metallic tip cassettes (Thermo Fisher Scientific) previously treated with Sigmacote. Then, 2 μL of the same buffer without MIF was dispensed onto positive control wells. […] In order to remove bubbles, the plate was centrifuged in an Allegra 25R centrifuge (Beckman Coulter, Inc., Brea, CA) at 1000 rpm for 2 min at room temperature. Then, the plate was read in an EnVision. Final concentrations of enzyme and substrate were 3 nM and 1.5 mM, respectively. Initial rates were calculated for each well as the slope of the absorbance progress curve.

Compound	IC50
COc1cc(N2CCC(O)C2)ccc1C(=O)NCc1nnc(-c2cccs2)o1 (stereo not drawn) [US11884682, Compound 78]	575 nM
COc1cc(NCCO)ccc1C(=O)NCc1nnc(-c2cccs2)o1 [US11884682, Compound 79]	708 nM
COc1cc(OC2CCNC2)ccc1C(=O)NCc1nnc(-c2cccs2)o1 (stereo not drawn) [US11884682, Compound 81]	2510 nM
